Earlier results on 3 compounds are cited in patent US9555118B2, “Robust controlled-release peptide formulations” (CAMURUS AB, priority 2011, dated 2017).

In series [1] the test system is somatostatin receptors (SSTR1-SSTR5).
The conditions of series [2]: single subcutaneous dose, human plasma.

*1 amine or outer side, *2 acyl side, *3 side chain or, on linkers, in order; H or OH if unused. Where a SMILES comes first, the peptide text is derived from it. Side-chain parts run from the residue outwards. [ ]: non-standard residue; d: D form. The star is where a group is joined. Ethylenediamine = C(CN[*:2])N[*:1]; Hyp = O=C(O)[C@@H]1C[C@@H](O)CN1; Phg = N[C@H](C(=O)O)c1ccccc1; CO = O=C([*:1])[*:2]; Bn = c1ccc(C*)cc1

On to “Ala-Gly-Cys-Lys-Asn-Phe-Phe-Trp-Lys-Thr-Phe-Thr-Ser-Cys [SST-14]”, for which the Biological half-life (natural SST-14) is 1-3 minutes. For the same compound, the Somatostatin receptor affinity entry in series [1] was “equally high affinity”.

For the compound `C[C@@H](O)[C@@H]1NC(=O)[C@H](CCCCN)NC(=O)[C@@H](Cc2c[nH]c3ccccc23)NC(=O)[C@H](Cc2ccccc2)NC(=O)[C@@H](NC(=O)[C@H](N)Cc2ccccc2)CSSC[C@@H](C(=O)N[C@H](CO)[C@@H](C)O)NC1=O` [Octreotide, D-Phe-Cys-Phe-D-Trp-Lys-Thr-Cys-Thr-ol (2-7 disulphide bridge)], the Terminal half-life result (in vivo) was “around 1.7 hours”. Also, the Somatostatin receptor selectivity result in series [1] is “high selectivity for SSTR2 and SSTR5”.

Consider `NCCCC[C@@H]1NC(=O)[C@@H](Cc2c[nH]c3ccccc23)NC(=O)[C@H](c2ccccc2)NC(=O)[C@@H]2C[C@@H](OC(=O)NCCN)CN2C(=O)[C@H](Cc2ccccc2)NC(=O)[C@H](Cc2ccc(OCc3ccccc3)cc2)NC1=O` [Pasireotide] (cyclo([Hyp]([CO-Ethylenediamine])[Phg][dW]KY(Bn)F)), for which, in series [2], the “Initial half-life following the peak” value was 2 to 3 h. Further, the Somatostatin receptor affinity result in series [1] was “high affinity for somatostatin receptor subtypes sstr1,2,3 and sstr5”.
